ChEMBL document CHEMBL1140893, “Cancer preventive agents. Part 8: Chemopreventive effects of stevioside and related compounds” (Bioorg Med Chem, 2009)

Assays:
[1] = Cytotoxicity against human Raji cells assessed as cell viability at 500 mol ratio by trypan blue staining; assay type: cell-based; conditions: read-out: Activity
Raji [2] = assay: Inhibition of TPA-induced EBV-early antigen activation in human Raji cells at 500 mol ratio after 48hrs by indirect immunofluorescence technique relative to control; assay type: cell-based; set-up: scale not given: the % may be the effect or the level left; conditions: human gammaherpesvirus 4
[3] = Cytotoxicity against human Raji cells assessed as cell viability at 1000 mol ratio by trypan blue staining; assay type: cell-based; conditions: read-out: Activity
Raji [4] = assay: Inhibition of TPA-induced EBV-early antigen activation in human Raji cells at 100 mol ratio after 48hrs by indirect immunofluorescence technique relative to control; assay type: cell-based; set-up: scale not given: the % may be the effect or the level left; conditions: human gammaherpesvirus 4
[5] = Cytotoxicity against human Raji cells assessed as cell viability at 100 mol ratio by trypan blue staining; assay type: cell-based; conditions: read-out: Activity
Raji [6] = assay: Inhibition of TPA-induced EBV-early antigen activation in human Raji cells at 10 mol ratio after 48hrs by indirect immunofluorescence technique relative to control; assay type: cell-based; set-up: scale not given: the % may be the effect or the level left; conditions: human gammaherpesvirus 4
[7] = Inhibition of TPA-induced EBV-early antigen activation in human Raji cells after 48hrs by indirect immunofluorescence technique; assay type: cell-based, human gammaherpesvirus 4
Mus musculus [8] = species on record: Mus musculus; assay: Reduction in peroxynitrite-induced/TPA-promoted number of skin papillomas in Sencar mouse after 20 weeks; assay type: functional; set-up: scale not given: the % may be the effect or the level left
Raji [9] = assay: Inhibition of TPA-induced EBV-early antigen activation in human Raji cells at 1000 mol ratio after 48hrs by indirect immunofluorescence technique relative to control; assay type: cell-based; set-up: scale not given: the % may be the effect or the level left; conditions: human gammaherpesvirus 4
[10] = Cytotoxicity against human Raji cells assessed as cell viability at 10 mol ratio by trypan blue staining; assay type: cell-based; conditions: read-out: Activity
Mus musculus [11] = assay: Inhibition of DMBA-induced/TPA-promoted carcinogenesis in mouse assessed as number of skin papillomas per mouse at 85 nmol administered 1 hr before TPA treatment measured after 20 weeks; assay type: functional
Mus musculus [12] = assay: Inhibition of DMBA-induced/TPA-promoted carcinogenesis in mouse assessed as number of skin papillomas per mouse at 85 nmol administered 1 hr before TPA treatment measured after 15 weeks; assay type: functional
Mus musculus [13] = assay: Inhibition of DMBA-induced/TPA-promoted carcinogenesis in mouse assessed as reduction in skin papillomas bearing mouse at 85 nmol administered 1 hr before TPA treatment measured after 15 weeks; assay type: functional; set-up: scale not given: the % may be the effect or the level left
Mus musculus [14] = assay: Inhibition of DMBA-induced/TPA-promoted carcinogenesis in mouse assessed as reduction in skin papillomas bearing mouse at 85 nmol administered 1 hr before TPA treatment measured after 10 weeks; assay type: functional; set-up: scale not given: the % may be the effect or the level left
Mus musculus [15] = assay: Inhibition of DMBA-induced/TPA-promoted carcinogenesis in mouse assessed as number of skin papillomas per mouse at 85 nmol administered 1 hr before TPA treatment measured after 10 weeks; assay type: functional
Mus musculus [16] = assay: Inhibition of DMBA-induced/TPA-promoted carcinogenesis in mouse assessed as reduction in skin papillomas bearing mouse at 85 nmol administered 1 hr before TPA treatment measured after 20 weeks; assay type: functional, organism-based; set-up: Activity: scale not given: the % may be the effect or the level left
Mus musculus [17] = assay: Inhibition of peroxynitrite-induced/TPA-promoted carcinogenesis in Sencar mouse assessed as number of skin papillomas per mouse at 85 nmol administered 1 hr before TPA treatment measured after 20 weeks; assay type: functional
Mus musculus [18] = assay: Inhibition of peroxynitrite-induced/TPA-promoted carcinogenesis in Sencar mouse assessed as number of skin papillomas per mouse at 85 nmol administered 1 hr before TPA treatment measured after 10 weeks; assay type: functional
Mus musculus [19] = assay: Inhibition of peroxynitrite-induced/TPA-promoted carcinogenesis in Sencar mouse assessed as reduction in skin papillomas bearing mouse at 85 nmol administered 1 hr before TPA treatment measured after 11 weeks; assay type: functional; set-up: scale not given: the % may be the effect or the level left
Mus musculus [20] = assay: Inhibition of peroxynitrite-induced/TPA-promoted carcinogenesis in Sencar mouse assessed as reduction in skin papillomas bearing mouse at 85 nmol administered 1 hr before TPA treatment measured after 20 weeks; assay type: functional; set-up: scale not given: the % may be the effect or the level left
Mus musculus [21] = assay: Inhibition of peroxynitrite-induced/TPA-promoted carcinogenesis in Sencar mouse assessed as reduction in skin papillomas bearing mouse at 85 nmol administered 1 hr before TPA treatment measured after 15 weeks; assay type: functional; set-up: scale not given: the % may be the effect or the level left
Mus musculus [22] = assay: Inhibition of peroxynitrite-induced/TPA-promoted carcinogenesis in Sencar mouse assessed as number of skin papillomas per mouse at 85 nmol administered 1 hr before TPA treatment measured after 15 weeks; assay type: functional
Mus musculus [23] = assay: Inhibition of peroxynitrite-induced/TPA-promoted carcinogenesis in Sencar mouse assessed as reduction in skin papillomas bearing mouse at 85 nmol administered 1 hr before TPA treatment measured after 10 weeks; assay type: functional; set-up: scale not given: the % may be the effect or the level left
Mus musculus [24] = assay: Inhibition of DMBA-induced/TPA-promoted carcinogenesis in mouse assessed as reduction in skin papillomas bearing mouse at 85 nmol administered 1 hr before TPA treatment measured after 9 weeks; assay type: functional; set-up: scale not given: the % may be the effect or the level left
Mus musculus [25] = assay: Inhibition of peroxynitrite-induced/TPA-promoted carcinogenesis in Sencar mouse assessed as number of skin papillomas per mouse at 85 nmol administered 1 hr before TPA treatment measured after 11 weeks; assay type: functional

## COc1cc(/C=C/C(=O)CC(=O)/C=C/c2ccc(O)c(OC)c2)ccc1O [CURCUMIN]
[1]
  viability at 500 mol ratio: > 80%
Raji [2]
  Activity: 22.8%
[3]
  viability at 1000 mol ratio: 60%
Raji [4]
  Activity: 81.7%
[5]
  viability at 100 mol ratio: > 80%
Raji [6]
  Activity: 100%
[7]
  IC50: 331 mol ratio/32 pmol TPA
Mus musculus [8]
  Activity: 45.1%
Raji [9]
  Activity: 0%
[10]
  viability at 10 mol ratio: > 80%

## C=C1C[C@@]23CC[C@H]4[C@@](C)(CCC[C@@]4(C)C(=O)O[C@@H]4O[C@H](CO)[C@@H](O)[C@H](O)[C@H]4O)[C@@H]2CC[C@]1(O[C@@H]1O[C@H](C)[C@@H](O)[C@H](O)[C@@H]1O[C@@H]1O[C@H](CO)[C@@H](O)[C@H](O)[C@H]1O)C3 [DULCOSIDE A]
Raji [2]
  Activity: 40.9%
Raji [4]
  Activity: 73%
Raji [6]
  Activity: 92.5%
Raji [9]
  Activity: 6.7%

## CC1(C)[C@@H](O[C@H]2O[C@H](C(=O)O)[C@@H](O)[C@H](O)[C@H]2O[C@@H]2O[C@H](C(=O)O)[C@@H](O)[C@H](O)[C@H]2O)CC[C@]2(C)[C@H]3C(=O)C=C4[C@@H]5C[C@@](C)(C(=O)O)CC[C@]5(C)CC[C@@]4(C)[C@]3(C)CC[C@@H]12 [GLYCYRRHIZIN]
Mus musculus [11]
  Activity: 6.2
[1]
  viability at 500 mol ratio: > 80%
Raji [2]
  Activity: 36.9%
Mus musculus [12]
  Activity: 4.6
[3]
  viability at 1000 mol ratio: 60%
Mus musculus [13]
  Activity: 60%
Raji [4]
  Activity: 69.2%
[5]
  viability at 100 mol ratio: > 80%
Mus musculus [14]
  Activity: 50%
Raji [6]
  Activity: 100%
[7]
  IC50: 381 mol ratio/32 pmol TPA
Mus musculus [15]
  Activity: 2.8
Mus musculus [16]
  Activity: 94%
Raji [9]
  Activity: 12.5%
[10]
  viability at 10 mol ratio: > 80%

## C[C@@]12CC[C@@H]3[C@@](CC[C@H]4[C@@]3(C)CCC[C@@]4(C)C(=O)O)(CC1=O)C2 [ISOSTEVIOL]
Mus musculus [17]
  Activity: 4.3
Mus musculus [11]
  Activity: 5
[1]
  viability at 500 mol ratio: > 80%
Raji [2]
  Activity: 34.2%
Mus musculus [12]
  Activity: 3.6
Mus musculus [18]
  Activity: 1.6
Mus musculus [13]
  Activity: 60%
Mus musculus [19]
  Activity: 33%
Raji [4]
  Activity: 73%
Mus musculus [20]
  Activity: 73%
[5]
  viability at 100 mol ratio: > 80%
Mus musculus [14]
  Activity: 20%
Raji [6]
  Activity: 90.6%
[7]
  IC50: 321 mol ratio/32 pmol TPA
Mus musculus [15]
  Activity: 1.8
Mus musculus [21]
  Activity: 53%
Mus musculus [22]
  Activity: 2.7
Mus musculus [16]
  Activity %: 87%
Mus musculus [8]
  Activity: 46.2%
Raji [9]
  Activity: 1.9%
[10]
  viability at 10 mol ratio: > 80%

## C=C1C[C@@]23CC[C@H]4[C@@](C)(CCC[C@@]4(C)C(=O)O[C@@H]4O[C@H](CO)[C@@H](O)[C@H](O)[C@H]4O)[C@@H]2CC[C@]1(O[C@@H]1O[C@H](CO)[C@@H](O)[C@H](O[C@@H]2O[C@H](CO)[C@@H](O)[C@H](O)[C@H]2O)[C@H]1O[C@@H]1O[C@H](CO)[C@@H](O)[C@H](O)[C@H]1O)C3 [REBAUDIOSIDE A]
[1]
  viability at 500 mol ratio: > 80%
[3]
  viability at 1000 mol ratio: 60%
[5]
  viability at 100 mol ratio: > 80%
[10]
  viability at 10 mol ratio: > 80%

## C=C1C[C@@]23CC[C@H]4[C@@](C)(CCC[C@@]4(C)C(=O)O[C@@H]4O[C@H](CO)[C@@H](O)[C@H](O)[C@H]4O)[C@@H]2CC[C@]1(O[C@@H]1O[C@H](CO)[C@@H](O)[C@H](O[C@@H]2O[C@H](CO)[C@@H](O)[C@H](O)[C@H]2O)[C@H]1O[C@@H]1O[C@@H](C)[C@H](O)[C@@H](O)[C@H]1O)C3 [REBAUDIOSIDE C]
[1]
  viability at 500 mol ratio: > 80%
[3]
  viability at 1000 mol ratio: 60%
[5]
  viability at 100 mol ratio: > 80%
[10]
  viability at 10 mol ratio: > 80%

## C=C1C[C@@]23CC[C@H]4[C@@](C)(CCC[C@@]4(C)C(=O)O[C@@H]4O[C@H](CO)[C@@H](O)[C@H](O)[C@H]4O)[C@@H]2CC[C@]1(O[C@@H]1O[C@H](CO)[C@@H](O)[C@H](O)[C@H]1O)C3 [RUBUSOSIDE]
[1]
  viability at 500 mol ratio: > 80%
Raji [2]
  Activity: 44.2%
[3]
  viability at 1000 mol ratio: 60%
Raji [4]
  Activity: 76.8%
[5]
  viability at 100 mol ratio: > 80%
Raji [6]
  Activity: 94.2%
[7]
  IC50: 450 mol ratio/32 pmol TPA
Raji [9]
  Activity: 12.5%
[10]
  viability at 10 mol ratio: > 80%

## C=C1C[C@@]23CC[C@H]4[C@@](C)(CCC[C@@]4(C)C(=O)O)[C@@H]2CC[C@]1(O)C3 [STEVIOL]
Mus musculus [17]
  Activity: 4.5
Mus musculus [23]
  Activity: 27%
Mus musculus [11]
  Activity: 5.4
[1]
  viability at 500 mol ratio: > 80%
Raji [2]
  Activity: 35.6%
Mus musculus [12]
  Activity: 3.7
Mus musculus [18]
  Activity: 2.3
[3]
  viability at 1000 mol ratio: 60%
Mus musculus [13]
  Activity: 60%
Raji [4]
  Activity: 74.1%
Mus musculus [20]
  Activity: 93%
[5]
  viability at 100 mol ratio: > 80%
Mus musculus [14]
  Activity: 27%
Raji [6]
  Activity: 91.2%
[7]
  IC50: 340 mol ratio/32 pmol TPA
Mus musculus [15]
  Activity: 1.8
Mus musculus [21]
  Activity: 67%
Mus musculus [22]
  Activity: 3.5
Mus musculus [16]
  Activity: 87%
Mus musculus [8]
  Activity: 44.4%
Raji [9]
  Activity: 2.1%
[10]
  viability at 10 mol ratio: > 80%

## C=C1C[C@@]23CC[C@H]4[C@@](C)(CCC[C@@]4(C)C(=O)O[C@@H]4O[C@H](CO)[C@@H](O)[C@H](O)[C@H]4O)[C@@H]2CC[C@]1(O[C@@H]1O[C@H](CO)[C@@H](O)[C@H](O)[C@H]1O[C@@H]1O[C@H](CO)[C@@H](O)[C@H](O)[C@H]1O)C3 [STEVIOSIDE]
Mus musculus [17]
  Activity: 4.4
[1]
  viability at 500 mol ratio: > 80%
Raji [2]
  Activity: 36.9%
Mus musculus [24]
  Activity: 20%
Mus musculus [13]
  Activity: 53%
Mus musculus [19]
  Activity: 40%
Raji [4]
  Activity: 67.4%
Mus musculus [20]
  Activity: 87%
Mus musculus [25]
  Activity: 2
[5]
  viability at 100 mol ratio: > 80%
Raji [6]
  Activity: 89.3%
[7]
  IC50: 360 mol ratio/32 pmol TPA
Mus musculus [21]
  Activity: 53%
Mus musculus [22]
  Activity: 3
Mus musculus [16]
  Activity: 93%
Mus musculus [8]
  Activity: 45%
Raji [9]
  Activity: 3.2%
[10]
  viability at 10 mol ratio: > 80%
